A short description of the first series: method code SF, from DOI: 10.1080/09553008714551831, PMID: 3497891. Conditions: pH 7.4.
In the case of `COCC(O)Cn1ncc([N+](=O)[O-])n1` (centres undefined), the logD – broadly, the decadic logarithm of the distribution of all forms, ionised or not, between an organic phase and buffer at a given pH – was -0.1. Same read-out and setting: the same measure for `Nc1ncc([N+](=O)[O-])s1`: 0.89. Same read-out and setting: the value for `COCC(O)Cn1cnc([N+](=O)[O-])n1` (centres undefined) was -0.47.

A short description of another series: method code SF-AS, from DOI: 10.1211/0022357001777513, PMID: 11186244. As to conditions: pH 7.3.
With `OCC(O)COc1cccc(-c2c3nc(c(-c4cccc(OCC(O)CO)c4F)c4ccc([nH]4)c(-c4cccc(OCC(O)CO)c4F)c4nc(c(-c5cccc(OCC(O)CO)c5F)c5ccc2[nH]5)C=C4)C=C3)c1F` (centres undefined), the logD is 2.65. The molecule `Oc1ccc(-c2c3nc(c(-c4ccc(O)cc4)c4ccc([nH]4)c(-c4ccc(O)cc4)c4nc(c(-c5ccc(O)cc5)c5ccc2[nH]5)C=C4)C=C3)cc1` came in with a logD of 4.77. `OCC(O)COc1cccc(-c2c3nc(c(-c4cccc(OCC(O)CO)c4)c4ccc([nH]4)c(-c4cccc(OCC(O)CO)c4)c4nc(c(-c5cccc(OCC(O)CO)c5)c5ccc2[nH]5)C=C4)C=C3)c1` (centres undefined) came in with a logD of 4.83. The logD values of the last two molecules are within 0.2 log units of each other. `OCC(O)COc1c(F)cc(-c2c3nc(c(-c4cc(F)c(OCC(O)CO)c(F)c4)c4ccc([nH]4)c(-c4cc(F)c(OCC(O)CO)c(F)c4)c4nc(c(-c5cc(F)c(OCC(O)CO)c(F)c5)c5ccc2[nH]5)C=C4)C=C3)cc1F` (centres undefined) had a logD of 2.61.

The nature of a further series: method code SF-AS, from DOI: 10.1016/0048-3575(88)90061-2.
Conditions: not given
Take `O=C(NC(=O)c1c(F)cccc1F)Nc1ccc(Oc2ncc(Cl)cc2C(F)(F)F)cc1`: the logP came out at 3.5. As for `O=C(NC(=O)c1c(F)cccc1F)Nc1ccc(Oc2ccc(C(F)(F)F)cn2)cc1`, the logP turned out to be 2.8. In turn, `O=C(NC(=O)c1c(F)cccc1F)Nc1ccc(Oc2ccccn2)cc1` showed a logP of 1.57. Still for that read-out and setting: the value for `O=C(NC(=O)c1c(F)cccc1F)Nc1ccc(Oc2ncc(C(F)(F)F)cc2Cl)cc1` was 3.53.

Assay in a further series: not given
Conditions: not given
`CC(C)(CO)[C@@H](O)C(=O)NCCC(=O)O` showed a logP of -1.69. On to `O=C(O)CCCC[C@@H]1SC[C@@H]2NC(=O)N[C@@H]21`, for which the logP stood at 0.39.

`CC(C=CC1=C(C)C=CCC1(C)C)=CC=CC(C)=CCO` came in with a logP of 7.41.

A further series can be described thus: method code SF-AS, from Kourounakis, P.; Chilliard, N. (1983). Ionization constants and partition coefficients of some 1,1-diphenyl-1-alkoxy-3-dialkylamino-2-propanones with analgesic activity. Pharmazie, 38(6)388-389. As to conditions: pH 7.4.
Consider `CCCOC(C(=O)CN(C)C)(c1ccccc1)c1ccccc1`, for which the logD came to 1.73.

In the case of `CCOC(C(=O)CN1CCOCC1)(c1ccccc1)c1ccccc1`, the pH-dependent lipophilicity (logD) was found to be 1.08.

Take `CC#CCOC(C(=O)CN(C)C)(c1ccccc1)c1ccccc1`: the logD was found to be 0.85. Molecule `C#CCOC(C(=O)CN(C)C)(c1ccccc1)c1ccccc1` gave a logD of 0.7.

The next series can be described thus: method code SF-RC, from DOI: 10.1021/es60170a013.
Conditions: not given
With `ClC(Cl)Cl`, the logP is 1.9.

In the case of `ClC(Cl)C(Cl)Cl`, the logP was 2.39. The same measure, in the same setting: the value for `Oc1ccc(Cl)c(O)c1` was 1.8.

The next series in a line: method code SF-AS, from DOI: 10.1021/jm00197a006, PMID: 533877.
Conditions: not given
Regarding `Cc1nsc(C=NO)n1`, the logP was 1.29. Still for that read-out and setting: the value for `O/N=C/c1cnns1` was 0.86; that for `Cc1nnc(/C=N/O)s1` was 0.78.

Assay in a further series: not given
Conditions: not given
The source holds these as a separate data set.
In turn, `COCC(c1c(O)c2ccccc2oc1=O)c1c(O)c2ccccc2oc1=O` gave a logP of 1.38. The molecule `O=c1oc2ccccc2c(O)c1C(c1ccccc1)c1c(O)c2ccccc2oc1=O` registered a logP of 1.95. The molecule `CCC(c1c(O)c2ccccc2oc1=O)c1c(O)c2ccccc2oc1=O` yielded a logP of 2.02. For the molecule `CCOC(=O)C(c1c(O)c2ccccc2oc1=O)c1c(O)c2ccccc2oc1=O`, the logP stood at 1.32.

Assay in a further series: not given
Conditions: not given
This is another data set of the same source.
With `O=C(O)c1cc(C(F)(F)F)nc2ccccc12`, the logP was 3.14. Molecule `Cc1cc(=O)n(-c2ccc(Cl)cc2)cc1C(=O)O` gave a logP of 4.1.

`O=C(O)c1snc(Cl)c1Cl` returned a logP of 1.44.

Assay in another series: not given
Conditions: not given
The source holds these as a separate data set.
As for `COCCO`, the logP was -0.61.

`CC(C)COCCO` showed a logP of 0.75. Still for that read-out and setting: the same measure for `C=CCOCCO`: -0.1.

A short description of another series: method code SF-GLC, from DOI: 10.1016/0166-445x(88)90052-5.
Conditions: not given
In turn, `ClCC1CO1` (centres undefined) had a logP of 0.45. `BrCC1CO1` (centres undefined) displayed a logP of 0.85. Regarding `OCC1CO1` (centres undefined), the logP was -0.95.

A short description of the next series: method code SF-AS, from DOI: 10.1080/10826076.2011.619030.
Conditions: not given
`CC1(C)OC2C(COC(=O)c3ccccc3)OC(n3ccc(=O)[nH]c3=O)C2O1` (centres undefined) displayed a logP of 1.29. For the molecule `CC1(C)OC2C(COC3CC(O)C(O)C(CO)O3)OC(n3ccc(=O)n(C(=O)c4ccccc4)c3=O)C2O1` (centres undefined), the logP came out at 0.13.

The molecule `CC1(C)OC2C(COC3CC(O)C(O)C(CO)O3)OC(n3ccc(=O)n(Cc4ccccc4)c3=O)C2O1` (centres undefined) returned a logP of 0.59. Still for that read-out and setting: the value for `CC1(C)OC2C(COC3CC(O)C(O)C(CO)O3)OC(n3ccc(=O)[nH]c3=O)C2O1` (centres undefined) was -1.56.

Assay in a further series: not given
Conditions: not given
The source holds these as a separate data set.
The molecule `COC1C(N)CC(OC2CC(O)(C(=O)CO)Cc3c(O)c4c(c(O)c32)C(=O)c2ccccc2C4=O)OC1C` (centres undefined) gave a logP of 0.39. In the case of `CC(=O)C1(O)Cc2c(O)c3c(c(O)c2C(OC2CC(N)C(O)C(C)O2)C1)C(=O)c1ccccc1C3=O` (centres undefined), the logP was 0.68. In the case of `COc1cccc2c1C(=O)c1c(O)c3c(c(O)c1C2=O)C[C@@](O)(C(=O)CO)C[C@@H]3O[C@H]1C[C@H](N)C[C@H](C)O1`, the logP stood at 0.01. The same measure, in the same setting: the value for `CC(=O)C1(O)Cc2c(O)c3c(c(O)c2C(OC2CC(N)C(O)C(C)O2)C1)C(=O)c1c(O)cccc1C3=O` (centres undefined) was 0.96.

The nature of a further series: method code SF-GLC, from DOI: 10.1016/s0045-6535(02)00841-x, PMID: 12615110.
Conditions: not given
The molecule `Brc1ccc(Oc2c(Br)cc(Br)cc2Br)c(Br)c1` displayed a logP of 7.24. `Brc1ccc(Oc2ccc(Br)cc2Br)c(Br)c1` had a logP of 6.81. On the same count and under the same terms, the same measure for `Brc1cc(Br)c(Oc2cc(Br)c(Br)cc2Br)c(Br)c1`: 7.82.

Assay in the next series: not given
Conditions: not given
This is another data set of the same source.
On to `ClC(Cl)=C(Cl)C(Cl)=C(Cl)Cl`, for which the logP was 4.74. On the same count and under the same terms, the value for `ClCc1cccc(CCl)c1` was 2.72; that for `Nc1ccc(Cl)cc1Cl` was 2.64.

The next series is described as follows: method code SF-HPLC, from DOI: 10.1016/0378-5173(92)90116-j. As to conditions: pH 7.4.
In the case of `CCC(C(=O)OCCCCOC(=O)C(CC)C(CO)Cc1cncn1C)C(CO)Cc1cncn1C` (centres undefined), the logD turned out to be 1.16. On the same count and under the same terms, the value for `CCC(C(=O)OCCCOC(=O)C(CC)C(CO)Cc1cncn1C)C(CO)Cc1cncn1C` (centres undefined) was 0.68; that for `CCC(C(=O)OCc1cccc(COC(=O)C(CC)C(CO)Cc2cncn2C)c1)C(CO)Cc1cncn1C` (centres undefined) was 1.99; that for `CCC(C(=O)OCCCCCCOC(=O)C(CC)C(CO)Cc1cncn1C)C(CO)Cc1cncn1C` (centres undefined) was 1.84.

Assay in another series: not given
Conditions: not given
This is another data set of the same source.
Regarding `ClC=C(Cl)Cl`, the logP stood at 2.67. Molecule `CC(Cl)CCl` (centres undefined) had a logP of 1.98. Same read-out and setting: the same measure for `ClCCCl`: 1.55.

Another series can be described thus: method code SF-HPLC, from DOI: 10.1002/jlac.1995199512305.
Conditions: not given
In turn, `COc1ccc(C(O)P(=O)(OCC2OC(n3cc(C)c(=O)[nH]c3=O)CC2N=[N+]=[N-])OCC2OC(n3cc(C)c(=O)[nH]c3=O)CC2N=[N+]=[N-])cc1` (centres undefined) had a logP of 0.72. In the case of `Cc1cn(C2CC(N=[N+]=[N-])C(COP(=O)(OCC3OC(n4cc(C)c(=O)[nH]c4=O)CC3N=[N+]=[N-])C(O)c3ccc(Cl)cc3)O2)c(=O)[nH]c1=O` (centres undefined), the logP was determined as 1.45. Same read-out and setting: the same measure for `Cc1cn(C2CC(N=[N+]=[N-])C(COP(=O)(OCC3OC(n4cc(C)c(=O)[nH]c4=O)CC3N=[N+]=[N-])C(O)c3ccc([N+](=O)[O-])cc3)O2)c(=O)[nH]c1=O` (centres undefined): 0.83. The molecule `Cc1cn(C2CC(N=[N+]=[N-])C(COP(=O)(OCC3OC(n4cc(C)c(=O)[nH]c4=O)CC3N=[N+]=[N-])C(O)c3ccc([N+](=O)[O-])cc3[N+](=O)[O-])O2)c(=O)[nH]c1=O` (centres undefined) yielded a logP of 0.94.

The nature of another series: method code SF, from Kruglik, P.; Leschev, M.; Rakhman'ko, M.; Bubel, N.; Asratyan, V. (1991). Extraction of 1,2,4-triazole and its derivatives by organic solvents. 64(8)1721-1724.
Conditions: not given
On to `CCCn1cnc([N+](=O)[O-])n1`, for which the logP was 0.22. As for `Cn1cnc([N+](=O)[O-])n1`, the logP is -0.45. Molecule `O=[N+]([O-])c1nc[nH]n1` registered a logP of -0.41.

Another series is described as follows: method code SF-AS, from DOI: 10.1021/jm00371a026, PMID: 6425501. As to conditions: pH 7.4.
Molecule `CO[C@@]12[C@@H]3N[C@@H]3CN1C1=C(C(=O)C(Nc3nc(C)cs3)=C(C)C1=O)[C@@H]2COC(N)=O` yielded a logD of 1.16.

Take `CO[C@@]12[C@H](COC(N)=O)C3=C(C(=O)C(C)=C(Nc4ccc(C)nc4)C3=O)N1C[C@@H]1N[C@@H]12`: the logD came to 0.59. The same measure, in the same setting: the same measure for `CO[C@@]12[C@H](COC(N)=O)C3=C(C(=O)C(C)=C(Nc4ccccc4)C3=O)N1C[C@@H]1N[C@@H]12`: 1.3; for `CO[C@@]12[C@H](COC(N)=O)C3=C(C(=O)C(C)=C(Nc4nc(C)c(C)s4)C3=O)N1C[C@@H]1N[C@@H]12`: 1.29.
